The values below come from publication PMC10182977 (Nature Communications, 2023).

Data set [1] addresses T1, xlCHPT1 (Xenopus laevis, UniProt Q4KLV1).
T1 construct: gene chpt1; full-length, codon-optimized; C-terminal His6-tag cleaved with TEV protease; Hi Five (Trichoplusia ni) baculovirus; detergent-purified homodimer; residues 20-383 modelled
T1 sequence (Q4KLV1 1-402): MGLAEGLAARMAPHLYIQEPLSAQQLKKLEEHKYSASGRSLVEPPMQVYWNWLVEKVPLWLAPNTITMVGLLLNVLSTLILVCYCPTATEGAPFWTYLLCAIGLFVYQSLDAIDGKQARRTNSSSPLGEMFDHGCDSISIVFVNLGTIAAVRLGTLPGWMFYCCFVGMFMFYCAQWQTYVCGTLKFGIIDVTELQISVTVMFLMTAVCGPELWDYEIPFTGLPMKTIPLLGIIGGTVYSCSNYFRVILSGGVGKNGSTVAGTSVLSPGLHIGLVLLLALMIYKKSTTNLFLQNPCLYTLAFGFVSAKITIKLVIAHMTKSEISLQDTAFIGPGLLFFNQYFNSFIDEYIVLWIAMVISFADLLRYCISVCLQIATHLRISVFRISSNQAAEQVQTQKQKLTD
The data set can be described thus: cryo-EM structure, ~[…] Å. As to conditions: Mg2+ complex; 10 mM CDP and 0.5 mM DAG added; CDP-choline active site. It is filed as binding.

Data set [2] concerns the molecule itself. The data set can be described thus: cryo-EM structure; single-particle cryo-EM of purified xlCHPT1 in 20 mM HEPES, 150 mM NaCl, 2 mM BME, 4 mM MgCl2, 0.02% GDN; with 10 mM CDP-choline, or with 10 mM CDP and 0.5 mM DAG; refined with C2 symmetry.

For `Nc1ccn([C@@H]2O[C@H](COP(=O)(O)OP(=O)(O)O)[C@@H](O)[C@H]2O)c(=O)n1` [CDP], the “cryo-EM structure, ~3.2 Å” value in data set [1] is “xlCHPT1 in complex with CDP have been deposited in the PDB under the accession code 8ERO”.

B1: Xenopus laevis cholinephosphotransferase-1 (enzyme, UniProt Q4KLV1 1-402, looked up)
chain: T1 sequence (Q4KLV1 1-402)
notes: cholinephosphotransferase-1 (CHPT1) of Xenopus laevis, full length, codon-optimized gene; residues 20-383 are resolved in the cryo-EM models, the first 19 and the last 18 residues are not resolved; The His6 tag was cleaved with TEV protease; residues of the cleavage site may be left at the C-terminus; also called xlCHPT1; CHPT1; source: Hi Five (Trichoplusia ni) cells, baculovirus, purified (LMNG …)
As to B1, the “stoichiometry N” value in data set [2] was 2.

As a reminder, the stoichiometry N is a count of units in the complex or per binding partner.
